Several values for one entry are separate records, joined by “and”; a condition that tells them apart may be missing. Equal values may be shown once. Inconclusive results and toxic doses are left out. How the source made its calls: active means survival T/C of 150% or more; inactive means T/C below 125% in these data.
Tested on: P388 leukemia ip, CD2F1 mice, survival T/C
Assay: NCI In Vivo Anticancer Drug Screen. Data for tumor model P388 Leukemia (intraperitoneal) in CD2F1 (CDF1) mice
Settings: endpoint: median survival time, higher = longer survival
In short: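 Mice carrying the transplanted tumor received test compound or vehicle. Survival was recorded in each group, and the value is the treated-group measurement divided by that of the vehicle-treated control group.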

[1] = dose: 50.0 mg/kg/injection, schedule: Q01DX005 (ip), vehicle: saline with Tween-80
[2] = dose: 100.0 mg/kg/injection, schedule: Q01DX005 (ip), vehicle: saline with Tween-80
[3] = dose: 200.0 mg/kg/injection, schedule: Q01DX005 (ip), vehicle: saline with Tween-80
[4] = dose: 50.0 mg/kg/injection, schedule: Q04DX002 (ip), vehicle: Klucel (hydroxypropylcellulose) (HPC)
[5] = dose: 50.0 mg/kg/injection, schedule: Q01DX005 (ip), vehicle: Klucel (hydroxypropylcellulose) (HPC)
[6] = dose: 100.0 mg/kg/injection, schedule: Q01DX005 (ip), vehicle: Klucel (hydroxypropylcellulose) (HPC)
[7] = dose: 60.0 mg/kg/injection, schedule: Q01DX005 (ip), vehicle: Klucel (hydroxypropylcellulose) (HPC)
[8] = dose: 120.0 mg/kg/injection, schedule: Q01DX005 (ip), vehicle: Klucel (hydroxypropylcellulose) (HPC)
[9] = dose: 240.0 mg/kg/injection, schedule: Q01DX005 (ip), vehicle: Klucel (hydroxypropylcellulose) (HPC)
[10] = dose: 200.0 mg/kg/injection, schedule: Q01DX005 (ip), vehicle: Klucel (hydroxypropylcellulose) (HPC)
[11] = dose: 50.0 mg/kg/injection, schedule: Q01DX005 (ip), vehicle: Klucel + Tween-80
[12] = dose: 100.0 mg/kg/injection, schedule: Q01DX005 (ip), vehicle: Klucel + Tween-80
[13] = dose: 200.0 mg/kg/injection, schedule: Q01DX005 (ip), vehicle: Klucel + Tween-80
[14] = dose: 12.5 mg/kg/injection, schedule: Q01DX009 (ip), vehicle: distilled water + Tween-80
[15] = dose: 25.0 mg/kg/injection, schedule: Q01DX009 (ip), vehicle: distilled water + Tween-80
[16] = dose: 50.0 mg/kg/injection, schedule: Q01DX009 (ip), vehicle: distilled water + Tween-80
[17] = dose: 100.0 mg/kg/injection, schedule: Q01DX009 (ip), vehicle: distilled water + Tween-80
[18] = dose: 200.0 mg/kg/injection, schedule: Q01DX009 (ip), vehicle: distilled water + Tween-80

Measured: T/C

O=C1NC2(CCCCC2)C(=O)N1CCN1C(=O)NC2(CCCCC2)C1=O
inactive: dose: 0.75 mg/kg/injection, schedule: Q01DX009 (ip), vehicle: saline 104 % of control | dose: 1.5 mg/kg/injection, schedule: Q01DX009 (ip), vehicle: saline 91 % of control | dose: 3.0 mg/kg/injection, schedule: Q01DX009 (ip), vehicle: saline 106 % of control | dose: 6.0 mg/kg/injection, schedule: Q01DX009 (ip), vehicle: saline 118 % of control | dose: 12.0 mg/kg/injection, schedule: Q01DX009 (ip), vehicle: saline 106 % of control

c1ccc2c(c1)ccc1[nH]c3ccc4ccccc4c3c12
inactive: dose: 1.56 mg/kg/injection, schedule: Q01DX005 (ip), vehicle: Klucel (hydroxypropylcellulose) (HPC) 100 % of control and 109 % of control and 111 % of control | dose: 3.12 mg/kg/injection, schedule: Q01DX005 (ip), vehicle: Klucel (hydroxypropylcellulose) (HPC) 107 % of control and 116 % of control and 117 % of control

CSc1nc(SC)c2cn(Cc3ccccc3)nc2n1
inactive: [1] 105 % of control | [2] 108 % of control | [3] 102 % of control

Cn1c(=O)oc2c(Br)cc(Br)cc21
inactive: [4] 101 % of control | dose: 100.0 mg/kg/injection, schedule: Q04DX002 (ip), vehicle: Klucel (hydroxypropylcellulose) (HPC) 104 % of control | dose: 200.0 mg/kg/injection, schedule: Q04DX002 (ip), vehicle: Klucel (hydroxypropylcellulose) (HPC) 101 % of control

Cc1nn(C(=S)S)c(C)c1N=Nc1ccc([N+](=O)[O-])cc1
inactive: dose: 25.0 mg/kg/injection, schedule: Q01DX005 (ip), vehicle: Klucel (hydroxypropylcellulose) (HPC) 94 % of control | [5] 104 % of control | [6] 108 % of control

O=C(O)c1ccc2c(c1Cl)C(=O)c1ccccc1C2=O
inactive: dose: 25.0 mg/kg/injection, schedule: Q04DX003 (ip), vehicle: Klucel (hydroxypropylcellulose) (HPC) 101 % of control | dose: 50.0 mg/kg/injection, schedule: Q04DX003 (ip), vehicle: Klucel (hydroxypropylcellulose) (HPC) 101 % of control | dose: 100.0 mg/kg/injection, schedule: Q04DX003 (ip), vehicle: Klucel (hydroxypropylcellulose) (HPC) 100 % of control

O=CC(O)C(O)C1[O][Sb][O]C1CO (stereo not given)
inactive: dose: 50.0 mg/kg/injection, schedule: Q01DX005 (ip), vehicle: saline 99 % of control | dose: 100.0 mg/kg/injection, schedule: Q01DX005 (ip), vehicle: saline 100 % of control | dose: 200.0 mg/kg/injection, schedule: Q01DX005 (ip), vehicle: saline 103 % of control

Cc1ncc(C(=O)O)n1Cc1ccccc1
inactive: [7] 94 % of control | [8] 93 % of control | [9] 93 % of control

OCC(O)c1c(-c2ccccc2)c(-c2ccccc2)c2n1CCC2 (stereo not given)
inactive: [5] 96 % of control | [6] 93 % of control | [10] 92 % of control

CCCCCCCC(C)c1cc(N)c(C)cc1[N+](=O)[O-] (stereo not given)
inactive: dose: 25.0 mg/kg/injection, schedule: Q04DX002 (ip), vehicle: Klucel (hydroxypropylcellulose) (HPC) 98 % of control | [4] 89 % of control

CC(=O)OC1C2OC3C=C(C)CCC3(CO)C(C)(C1OC(C)=O)C21CO1 (stereo not given)
inactive: dose: 0.5 mg/kg/injection, schedule: Q01DX009 (ip), vehicle: saline 108 % of control | dose: 1.0 mg/kg/injection, schedule: Q01DX009 (ip), vehicle: saline 100 % of control | dose: 2.0 mg/kg/injection, schedule: Q01DX009 (ip), vehicle: saline 106 % of control

COc1cc2c(cc1OC)CN1CCc3cc(OC)c(OC)cc3[C@@H]1C2
inactive: dose: 12.5 mg/kg/injection, schedule: Q01DX005 (ip), vehicle: saline with Tween-80 100 % of control | dose: 25.0 mg/kg/injection, schedule: Q01DX005 (ip), vehicle: saline with Tween-80 102 % of control | [1] 104 % of control and 98 % of control

COc1ccccc1C1OC(N)=C(O)C1=O (stereo not given)
inactive: [7] 97 % of control | [8] 103 % of control | [9] 104 % of control

O=C(C[N+](=O)[O-])OCc1ccccc1
inactive: dose: 12.5 mg/kg/injection, schedule: Q01DX009 (ip), vehicle: other 101 % of control | dose: 25.0 mg/kg/injection, schedule: Q01DX009 (ip), vehicle: other 106 % of control | dose: 50.0 mg/kg/injection, schedule: Q01DX009 (ip), vehicle: other 113 % of control | dose: 100.0 mg/kg/injection, schedule: Q01DX009 (ip), vehicle: other 103 % of control

Clc1ccccc1C=Nc1ccc(N=Cc2ccccc2Cl)cc1
inactive: dose: 100.0 mg/kg/injection, schedule: Q04DX002 (ip), vehicle: saline with Tween-80 97 % of control | dose: 200.0 mg/kg/injection, schedule: Q04DX002 (ip), vehicle: saline with Tween-80 91 % of control | dose: 400.0 mg/kg/injection, schedule: Q04DX002 (ip), vehicle: saline with Tween-80 92 % of control

O=C(O)c1c2cc(Br)ccc2nc2[nH]c(=O)[nH]c(=O)c12
inactive: [11] 104 % of control | [12] 112 % of control | [13] 111 % of control

O=C(N/N=C\c1ccccc1O)c1cccc2ccccc12
inactive: [5] 99 % of control | [6] 99 % of control | [10] 102 % of control

OCN(CO)c1nc(CCC(Br)(Br)Br)nc(N(CO)CO)n1
inactive: [14] 104 % of control | [15] 98 % of control | [16] 98 % of control | [17] 89 % of control | [18] 98 % of control

O=C(CCCl)Nc1ccc(CCC(=O)c2ccccc2NC(=O)CCCl)cc1
inactive: dose: 60.0 mg/kg/injection, schedule: Q01DX005 (ip), vehicle: saline with Tween-80 100 % of control | dose: 120.0 mg/kg/injection, schedule: Q01DX005 (ip), vehicle: saline with Tween-80 90 % of control | dose: 240.0 mg/kg/injection, schedule: Q01DX005 (ip), vehicle: saline with Tween-80 92 % of control

CCCCCN(C)C12CN3CN(CN(C3)C1)C2
inactive: dose: 50.0 mg/kg/injection, schedule: Q01DX009 (ip), vehicle: saline 103 % of control | dose: 100.0 mg/kg/injection, schedule: Q01DX009 (ip), vehicle: saline 103 % of control | dose: 200.0 mg/kg/injection, schedule: Q01DX009 (ip), vehicle: saline 99 % of control

CCB(CC)OC1OC(C2COB(CC)O2)C2OB(CC)OC12 (stereo not given)
inactive: [1] 103 % of control | [2] 95 % of control | [3] 101 % of control

COC(=O)c1ccc(Cl)cc1OC
inactive: [14] 101 % of control | [15] 99 % of control | [16] 99 % of control | [17] 101 % of control | [18] 101 % of control

C=CCCc1cc(OC)ccc1C(=O)C(C)C
inactive: dose: 25.0 mg/kg/injection, schedule: Q01DX009 (ip), vehicle: Klucel (hydroxypropylcellulose) (HPC) 100 % of control | [1] 99 % of control | dose: 50.0 mg/kg/injection, schedule: Q01DX009 (ip), vehicle: Klucel (hydroxypropylcellulose) (HPC) 104 % of control | [2] 107 % of control | dose: 100.0 mg/kg/injection, schedule: Q01DX009 (ip), vehicle: Klucel (hydroxypropylcellulose) (HPC) 102 % of control | [3] 100 % of control | dose: 200.0 mg/kg/injection, schedule: Q01DX009 (ip), vehicle: Klucel (hydroxypropylcellulose) (HPC) 104 % of control

CC([NH-])C[NH-].CC([NH-])C[NH-].CC([NH-])C[NH-].[Co] (stereo not given)
inactive: dose: 12.5 mg/kg/injection, schedule: Q04DX003 (ip), vehicle: water 91 % of control | dose: 25.0 mg/kg/injection, schedule: Q04DX003 (ip), vehicle: water 94 % of control | dose: 50.0 mg/kg/injection, schedule: Q04DX003 (ip), vehicle: water 94 % of control | dose: 100.0 mg/kg/injection, schedule: Q04DX003 (ip), vehicle: water 90 % of control

COC(=O)N1CCCc2cc3c(cc(OC)c(OC)c3c3[nH]c4ccccc4c23)CC1
inactive: [11] 100 % of control | [12] 95 % of control | [13] 91 % of control

From PubChem BioAssay AID330 (DTP/NCI, 2004)
